Laboratory results reported in patent publication US9149519B2, “Chimeric human immunodeficiency virus type 1 (HIV-1) with enhanced dendritic cell and macrophage tropism comprising the simian immunodeficiency virus (SIV) minimal Vpx packaging domain” (New York University, priority 2012, dated 2015).

Experiments:
IFN-β mRNA = IFN-β mRNA induction in infected MDDC by qRT-PCR; type: cell-based, human; conditions: AZT 25 μM or Raltegravir 10 μM added prior to infection
MDDC = type: cell-based, human
MDM = type: cell-based, human
MDM and MDDC = test: Infectivity on MDM and MDDC (summary statements); type: cell-based, human; conditions: accessory protein provided in trans
resting CD4+ T cells = conditions: Siliciano et al. 2012; cited from earlier work

## Cc1nnc(C(=O)NC(C)(C)c2nc(C(=O)NCc3ccc(F)cc3)c(O)c(=O)n2C)o1 [Raltegravir]
IFN-β mRNA
  Effect on IFN-β induction by Vpx-containing p6 chimeric virus: blocked

## Cc1cn([C@H]2C[C@H](N=[N+]=[N-])[C@@H](CO)O2)c(=O)[nH]c1=O [AZT]
IFN-β mRNA
  Effect on IFN-β induction by Vpx-containing p6 chimeric virus: blocked

## HIV-2rod Vpx: HIV-2 Vpx accessory protein from codon-optimized expression vector
MDDC
  Activity relative to SIVmac239 Vpx: about 8%
  Effect of packaged accessory protein on infectivity of the p6 chimeric virus: enhanced the infectivity of the p6 chimeric virus
MDM
  Effect of packaged accessory protein on infectivity of the p6 chimeric virus: enhanced the infectivity of the p6 chimeric virus on MDM
MDM and MDDC
  Enhancement of MDM and MDDC infection: only slightly enhanced MDM and MDDC infection

## O=C(CCCCCCC(=O)Nc1ccccc1)NO [SAHA, suberoylanilide hydroxamic acid]
Resting CD4+ T cells
  Virus reactivation: induced virus reactivation from resting CD4+ T cells

B1: SIVmac239 Vpx: lentiviral accessory protein, codon-optimized expression vector, SEQ ID NO: 85 (protein)
chain: MSDPRERIPPGNSGEETIGEAFEWLNRTVEEINREAVNHLPRELIFQVWQRSWEYWHDEQGMSPSYVKYRYLCLIQKALFMHCKKGCRCLGEGHGAGGWRPGPPPPPPPGLA
modifications: Simian immunodeficiency virus
MDDC
  Effect of packaged accessory protein on infectivity of the p6 chimeric virus: enhanced the infectivity of the p6 chimeric virus
MDM
  Effect of packaged accessory protein on infectivity of the p6 chimeric virus: enhanced the infectivity of the p6 chimeric virus on MDM

B2: SIVagm Vpr: SIVagm protein termed Vpr but more similar to Vpx (protein)
chain: MAEGRDSRERRPGWLEIWDLSREPWDEGLRDMVAELNQEAQRHFGRELLFQVWNFCQEEGERNGAPMIERAYRYYRLVQKALFVHFRCGCRRRTPFEPYEERRNGVGGGRDGREPPPGLA
modifications: Simian immunodeficiency virus
notes: SIVagm protein termed Vpr but more similar to Vpx
MDDC
  Effect of packaged accessory protein on infectivity of the p6 chimeric virus: had no detectable effect
MDM
  Effect of packaged accessory protein on infectivity of the p6 chimeric virus: had no detectable effect
MDM and MDDC
  Enhancement of MDM and MDDC infection: did not enhance the infection
